Key:
NMDA NR1/NR2B receptor = NMDA NR1/NR2B receptor (Homo sapiens (Human), UniProt Q13224); experiment: NMDA NR1/NR2B FLIPR calcium assay in HEK293 cells; assay type: cell-based; conditions: glycine/glutamate-induced calcium, read-out: IC50, in vitro NR2B affinity in the FLIPR assay
Method: A human HEK293 cell line with tetracyclin-inducible expression of NMDA NR1/NR2B receptor was used as a test system for compound efficacy and potency. The cell line was purchased from ChanTest, Catalog #CT6121. Compound activity was determined by measuring the effect of compounds on intracellular calcium concentration induced by glycine/glutamate agonism in a FLIPRtetra system (Molecular Devices).
The cells were obtained as frozen cells in cryo-vials and stored until use at −150° C. Cells were grown in culture medium (DMEM/F12, 10% FBS, 5 μg/mL Blasticidin, 150 μg/mL Zeozin, 500 μg/mL Geneticin). […] For sub-culturing the cells were detached from flasks by Versene. For the assay, cells were detached, washed twice with induction medium (DMEM/F12 without glutamine, 10% FBS, 2 μg/mL Tetracycline, 2 mM Ketamine) and seeded to 384 well pure coat amine plates (Becton Dickinson, 50000 cells per well in 50 μl) 48 h prior to assay in induction medium.
The test compounds were dissolved in 100% DMSO at a concentration of 10 mM and in a first step diluted in DMSO to a concentration of 5 mM, followed by serial dilution steps in 100% DMSO. Dilution factor and number of dilution steps may vary according to needs. Typically 8 different concentrations by 1:5 dilutions were prepared in duplicate, further intermediate dilutions (1:37.5) of the substances were carried out with aqueous assay buffer (137 mM NaCl, 4 mM KCl, 1.8 mM CaCl2), 10 mM HEPES, 10 mM Glucose, pH 7.4) resulting in a compound concentration 3 times above the final test concentration and DMSO at 2.7% resulting in 0.9% final DMSO concentration in the assay.
At the assay day cells were washed 3× with assay buffer (as described above), 10 μL buffer remained in the wells after washing. 10 μL Ca kit loading buffer (AAT Bioquest; prepared from the kit containing the following components: Component A: Fluo-8 NW dissolved in 200 μL DMSO and 20 μl of this solution are mixed with 10 ml buffer prepared out of component B and C, Component B: 10× Pluronic® F127 Plus diluted 1:10 in component C, Component C: HHBS (Hanks with 20 mM Hepes) was added to the cells and the plates were incubated with lid for 60 minutes at room temperature. 20 μl assay buffer containing 60 μM glycine (20 μM final) and 3 μM glutamate (1 μM final) was added to column 1-23, column 24 got assay buffer without glycine/glutamate to serve as negative unstimulated control. Fluorescence (indicating the calcium influx as a result of the NR1/NR2B ion channel activation) was read on the FLIPRtetra device for 60 seconds to monitor the glutamate induced effects. After 2 minutes 20 μL of compound dilution prepared as described above or controls (row 1-22) in assay buffer were carefully added to the wells. […] The average of 2 measurements at 5 minutes and 5 min 10 seconds after compound addition is calculated and further used for IC50 calculations. Each assay microtiter compound dilution plate contained wells (in column 23 or 24) with DMSO controls instead of compound as controls for glycine/glutamate induced fluorescence (high controls) and wells with 1 μM of a reference NR2B NAM as low controls (Compound 22; reference: Layton, Mark E et al, ACS Chemical Neuroscience 2011, 2(7), 352-362).
The output file of the reader contains the well number and measured average fluorescence units. For data evaluation and calculation, the measurement of the low control was set as 0% control and the measurement of the high control was set as 100% control. The IC50 values were calculated using the standard 4 parameter logistic regression formula. Calculation: [y=(a−d)/(1+(x/c)^b)+d], a=low value, d=high value; x=conc M; c=IC50 M; b=slope.

[1] = Metabolic stability in pooled human liver microsomes; assay type: in vitro ADME; conditions: pH 7.6, 1 μM compound, 1 mg/mL microsomal protein, 37° C., NADPH, read-out: Half-life - t½ human liver microsomes
Text: Stability in human liver microsomes refers to the susceptibility of compounds to biotransformation in the context of selecting and/or designing drugs with favorable pharmacokinetic properties. The primary site of metabolism for many drugs is the liver. Human liver microsomes contain the cytochrome P450s (CYPs), and thus represent a model system for studying drug metabolism in vitro. Enhanced stability in human liver microsomes is associated with several advantages, including increased bioavailability and adequate half-life, which can enable lower and less frequent dosing of patients. Thus, enhanced stability in human liver microsomes is a favorable characteristic for compounds that are to be used for drugs.
The metabolic degradation of the test compound was assayed at 37° C. with pooled human liver microsomes. The final incubation volume of 60 μl per time point contains TRIS buffer pH 7.6 at room temperature (0.1 M), magnesium chloride (5 mM aqueous solution), microsomal protein (1 mg/mL for human) and the test compound at a final concentration of 1 μM. Following a short preincubation period at 37° C., the reactions were initiated by addition of betanicotinamide adenine dinucleotide phosphate, reduced form (NADPH, 1 mM), and terminated by transferring an aliquot into acetonitril after different time points. After centrifugation (10000 g, 5 min), an aliquot of the supernatant was assayed by HPLC-MS/MS as described above for the MDCK assay P-gp for the amount of parent compound. The half-life was determined by the slope of the semi-logarithmic plot of the concentration-time profile.

NMDA NR1/NR2B receptor, sequence (Q13224 27-1484, other chains not shown): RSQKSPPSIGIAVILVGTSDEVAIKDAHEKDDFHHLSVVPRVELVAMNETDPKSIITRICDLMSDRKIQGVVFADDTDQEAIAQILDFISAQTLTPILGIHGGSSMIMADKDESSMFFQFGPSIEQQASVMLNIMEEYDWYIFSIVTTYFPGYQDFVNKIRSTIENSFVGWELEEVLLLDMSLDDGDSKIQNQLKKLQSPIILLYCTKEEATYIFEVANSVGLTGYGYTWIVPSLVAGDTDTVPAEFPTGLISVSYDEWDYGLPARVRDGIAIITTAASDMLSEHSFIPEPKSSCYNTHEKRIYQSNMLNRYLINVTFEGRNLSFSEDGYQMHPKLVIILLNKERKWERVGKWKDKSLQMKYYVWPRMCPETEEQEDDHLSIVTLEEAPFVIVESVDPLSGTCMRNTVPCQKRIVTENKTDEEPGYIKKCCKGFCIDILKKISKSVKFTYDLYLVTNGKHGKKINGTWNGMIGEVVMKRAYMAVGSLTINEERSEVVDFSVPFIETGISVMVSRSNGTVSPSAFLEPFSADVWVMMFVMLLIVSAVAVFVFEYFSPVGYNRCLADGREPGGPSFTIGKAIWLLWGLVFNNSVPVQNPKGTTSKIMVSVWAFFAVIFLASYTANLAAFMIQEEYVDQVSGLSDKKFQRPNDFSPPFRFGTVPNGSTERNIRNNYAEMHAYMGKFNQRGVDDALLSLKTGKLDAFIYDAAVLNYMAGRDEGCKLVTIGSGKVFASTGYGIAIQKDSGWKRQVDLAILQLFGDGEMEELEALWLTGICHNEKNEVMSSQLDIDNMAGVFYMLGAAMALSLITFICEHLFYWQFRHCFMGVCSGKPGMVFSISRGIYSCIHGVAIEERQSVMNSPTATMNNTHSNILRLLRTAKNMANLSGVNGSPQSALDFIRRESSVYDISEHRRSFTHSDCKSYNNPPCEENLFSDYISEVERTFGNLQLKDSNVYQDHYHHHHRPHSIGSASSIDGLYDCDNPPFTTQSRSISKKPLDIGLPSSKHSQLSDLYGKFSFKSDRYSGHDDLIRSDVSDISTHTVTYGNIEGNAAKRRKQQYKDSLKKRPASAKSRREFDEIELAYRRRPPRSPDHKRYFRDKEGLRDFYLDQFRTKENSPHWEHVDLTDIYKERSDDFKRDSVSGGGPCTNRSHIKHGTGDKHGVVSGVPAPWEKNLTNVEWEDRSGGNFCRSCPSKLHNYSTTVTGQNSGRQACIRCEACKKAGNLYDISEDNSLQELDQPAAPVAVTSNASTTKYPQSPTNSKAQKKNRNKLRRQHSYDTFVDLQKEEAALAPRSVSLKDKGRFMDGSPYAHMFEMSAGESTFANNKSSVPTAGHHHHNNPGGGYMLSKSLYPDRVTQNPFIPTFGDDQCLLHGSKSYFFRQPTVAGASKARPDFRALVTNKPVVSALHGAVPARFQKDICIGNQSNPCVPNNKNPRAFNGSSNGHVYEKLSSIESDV

| IC50 (NMDA NR1/NR2B receptor) | half-life at 1 µM [1] | Compound |
| --- | --- | --- |
| 550 nM | > 2.17 h | CNC(=O)[C@@H]1CN(Cc2cnc(Oc3ccccc3Cl)nc2)CCO1 [Example 26] |
| 350 nM | > 2.17 h | CNC(=O)[C@@H]1CN(Cc2cnc(Oc3ccccc3F)nc2)CCO1 [Example 27] |
| 500 nM | > 2.17 h | CNC(=O)[C@@H]1CN(Cc2cnc(Oc3ccc(C)cc3)nc2)CCO1 [Example 28] |
| 547 nM | > 2.17 h | CNC(=O)[C@@H]1CN(Cc2cnc(Oc3ccc(F)cc3)nc2)CCO1 [Example 32] |

The next lines start with the compound.

| Compound | IC50 (NMDA NR1/NR2B receptor) | half-life at 1 µM [1] |
| --- | --- | --- |
| CNC(=O)[C@@H]1CN(Cc2cnc(Oc3ccc(F)cc3F)nc2)CCO1 [Example 23] | 143 nM | > 2.17 h |
| CNC(=O)[C@@H]1CN(Cc2cnc(Oc3ccc(Cl)cc3F)nc2)CCO1 [Example 24] | 98 nM | > 2.17 h |
| CNC(=O)[C@@H]1CN(Cc2cnc(Oc3ccc(Cl)cc3)nc2)CCO1 [Example 25] | 216 nM | > 2.17 h |
| CNC(=O)[C@@H]1CN(Cc2cnc(Oc3ccc(C)cc3C)nc2)CCO1 [Example 22] | 1110 nM | > 2.17 h |
| CNC(=O)[C@@H]1CN(Cc2cnc(Oc3ccc(C)cc3F)nc2)CCO1 [Example 20] | 133 nM | > 2.17 h |
| CNC(=O)[C@@H]1CN(Cc2cnc(Oc3ccc(F)cc3C)nc2)CCO1 [Example 21] | 702 nM | > 2.17 h |

— patent US11104670B2, “4-pyrimidin-5-ylmethyl-morpholine derivatives and the use thereof as medicament” (Boehringer Ingelheim International GmbH, priority 2018, dated 2021)
